Consider nine molecules from US20240174618A1, “SUBSTITUTED (2-HETEROARYLOXYPHENYL)SULFONATES, SALTS THEREOF AND THEIR USE AS HERBICIDAL AGENTS” (Bayer Aktiengesellschaft, priority 2021, published 2024).

Format in all cases: in vivo
One data set concerns Stellaria media (STEME). In words: B. Herbicidal post-emergence efficacy, STEME. An outline of the steps:
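Weeds grown in sandy loam in greenhouse pots, sprayed at one-leaf stage (2–3 weeks after sowing) with WP or EC formulations as aqueous suspension/emulsion plus 0.5% additive at 600 L/ha water, rates up to 1280 g/ha. Visual efficacy rated about 3 weeks later versus untreated controls (0% = like control, 100% = dead).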

Data set [1] relates to Pharbitis purpurea (PHBPU). In words: C. Herbicidal pre-emergence efficacy, PHBPU. Particulars: 320 g/ha, scored after about 3 weeks. The source says: Seeds of monocotyledonous and dicotyledonous weed plants and crop plants were placed in plastic or organic planting pots and covered with soil. The compounds of the invention, formulated in the form of wettable powders (WP) or as emulsion concentrates (EC), were then applied to the surface of the covering soil as aqueous suspension or emulsion with addition of 0.5% additive at a water application rate equivalent to 600 l/ha (converted). After the treatment, the pots were placed in a greenhouse and kept under good growth conditions for the test plants. After about 3 weeks, the efficacy of the preparations was scored visually in comparison with untreated controls as percentages. For example, • 100% efficacy=plants have died, • 0% efficacy=like untreated control plants.
Tables C1a to C14b below show the effects of selected compounds of the general formula (I) according to table 1 on various harmful plants at an application rate corresponding to 320 g/ha or less, which were obtained by the experimental procedure mentioned above.

Data set [2] concerns Alopecurus myosuroides (ALOMY). In words: E. Herbicidal post-emergence efficacy, ALOMY. Particulars: application rate 320 g/ha. How it is done: (§1) Seeds of monocotyledonous and dicotyledonous weeds and crop plants were placed in sandy loam in plastic or organic planting pots, covered with soil and cultivated in a greenhouse under controlled growth conditions. 2 to 3 weeks after sowing, the test plants were treated at the one-leaf stage. The compounds of the invention, formulated in the form of wettable powders (WP) or as emulsion concentrates (EC), were then sprayed onto the green parts of the plants as aqueous suspension or emulsion with addition of 0.5% additive at a water application rate of 600 l/ha (converted). After the test plants had been kept in the greenhouse under optimum growth conditions for about 3 weeks, the activity of the preparations was rated visually in comparison to untreated controls.
(§2) For example, • 100% efficacy=plants have died, • 0% action=like untreated control plants.
(§3) Tables E1a to E12b below show the effects of selected compounds of the general formula (I) according to table 1 on various harmful plants at an application rate corresponding to 320 g/ha or less, which were obtained by the experimental procedure mentioned above.

The test system of data set [3] is Amaranthus retroflexus (AMARE). In words: E. Herbicidal post-emergence efficacy, AMARE. An outline of the steps: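 Greenhouse post-emergence spray, one-leaf stage (2–3 wk after sowing, sandy loam); WP/EC formulation, aqueous + 0.5% additive, 600 l/ha water; rates 320 g/ha or less. Visual rating ~3 wk later vs untreated; 0% = control-like, 100% = dead.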
In data set [4] the test system is Zea mays (ZEAMX). As to the kind of experiment: F. Post-emergence effect on useful plants, ZEAMX. To be noted: useful plant. In short, it runs like this: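 Crop plants grown in sandy loam in the greenhouse were sprayed at the one-leaf stage, 2-3 weeks after sowing, with WP or EC formulations plus 0.5% additive at 600 l/ha water. Damage was scored visually after about 3 weeks against untreated controls (0% = like control, 100% = dead).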

For data set [5], the system named is Zea mays (ZEAMX). In words: D. Pre-emergence effect on useful plants, ZEAMX. Particulars: useful plant. An outline of the steps:
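Seeds sown in pots and covered with soil; WP or EC formulations sprayed on the soil surface as aqueous suspension/emulsion with 0.5% additive at 600 l/ha water. Plants grown in greenhouse; crop damage scored visually after about 3 weeks as % versus untreated controls (100% = dead, 0% = like control).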

Data set [6] relates to Digitaria sanguinalis (DIGSA). As to the kind of experiment: E. Herbicidal post-emergence efficacy, DIGSA. To be noted: application rate 320 g/ha. The protocol:
as §1, §2, §3

For a further data set, the system named is Kochia scoparia (KCHSC). In words: C. Herbicidal pre-emergence efficacy, KCHSC. An outline of the steps: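 Pre-emergence test: formulated compounds sprayed as aqueous suspension or emulsion with 0.5% additive at 600 l/ha onto soil covering sown seeds, at rates corresponding to 320 g/ha or less. After about 3 weeks in greenhouse, efficacy scored visually as percent versus untreated controls (100% = plants dead).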

For `CCCS(=O)(=O)Oc1ccccc1Oc1ncc(Cl)cn1` [Example I-3], the “Post-emergence efficacy against STEME” value was 90% in the data set on Stellaria media (STEME) (320 g/ha) and 100% in the data set with Stellaria media (STEME) (1280 g/ha). The “Pre-emergence efficacy against PHBPU” value in data set [1] is on record as 80%. For the same molecule, the “Post-emergence efficacy against ALOMY in %” value in data set [2] is 80%. The “Post-emergence efficacy against AMARE in %” value in data set [3] (application rate 320 g/ha) was determined as 100%. Also, the “Post-emergence efficacy against ZEAMX in %” value in the data set with Zea mays (ZEAMX) [4] (application rate 80 g/ha) is listed as 10%.

Take `O=S(=O)(CCl)Oc1ccccc1Oc1ncc(Cl)cn1` [Example I-9]: the “Post-emergence efficacy against STEME” value in the data set on Stellaria media (STEME) (1280 g/ha) was 90%. Further, the “Pre-emergence efficacy against ZEAMX in %” value in the data set on Zea mays (ZEAMX) [5] (application rate 80 g/ha) is 0%; in the data set on Zea mays (ZEAMX) [5] (application rate 320 g/ha), 20%. Also, the “Post-emergence efficacy against AMARE in %” value in data set [3] (application rate 80 g/ha) and in data set [3] (application rate 320 g/ha) was 100% in each case. Further, the “Post-emergence efficacy against DIGSA in %” value in data set [6] was found to be 80%. The “Post-emergence efficacy against ZEAMX in %” value with Zea mays (ZEAMX) [4] (application rate 80 g/ha) and with Zea mays (ZEAMX) [4] (application rate 320 g/ha) was 20% in each case.

`O=S(=O)(CCCCl)Oc1cccc(F)c1Oc1ncc(Cl)cn1` [Example I-13]: the “Post-emergence efficacy against STEME” value stood at 90% with Stellaria media (STEME) (320 g/ha) and 100% in the data set with Stellaria media (STEME) (1280 g/ha). The “Pre-emergence efficacy against ZEAMX in %” value in the data set on Zea mays (ZEAMX) [5] (application rate 80 g/ha) came to 10%; with Zea mays (ZEAMX) [5] (application rate 320 g/ha), 20%. Moreover, the “Post-emergence efficacy against AMARE in %” value in data set [3] (application rate 320 g/ha) was 80%. In addition, the “Post-emergence efficacy against ZEAMX in %” value in the data set with Zea mays (ZEAMX) [4] (application rate 80 g/ha) and in the data set with Zea mays (ZEAMX) [4] (application rate 320 g/ha) was 20% throughout.

As to `CCS(=O)(=O)Oc1ccccc1Oc1ncc(Cl)cn1` [Example I-16], the figures for the “Post-emergence efficacy against STEME” value in the data set with Stellaria media (STEME) (80 g/ha), with Stellaria media (STEME) (320 g/ha) and with Stellaria media (STEME) (1280 g/ha) were 90%, 100% and 100%, respectively.

For the molecule `Cc1cccc(Oc2ncc(Cl)cn2)c1OS(=O)(=O)CCCC(F)(F)F` [Example I-28, 2-[(5-Chloropyrimidin-2-yl)oxy]-6-methylphenyl 4,4,4-trifluorobutane-1-sulfonate], the “Post-emergence efficacy against STEME” value came to 90% with Stellaria media (STEME) (80 g/ha), 100% in the data set with Stellaria media (STEME) (320 g/ha) and 100% in the data set with Stellaria media (STEME) (1280 g/ha).

As to `O=S(=O)(CCCC(F)(F)F)Oc1c(Br)cccc1Oc1ncc(Cl)cn1` [Example I-30], the “Post-emergence efficacy against STEME” value in the data set with Stellaria media (STEME) (80 g/ha), in the data set with Stellaria media (STEME) (320 g/ha) and in the data set with Stellaria media (STEME) (1280 g/ha) was 100% throughout.

With `O=S(=O)(CCC(F)(F)F)Oc1c(Br)cccc1Oc1ncc(Cl)cn1` [Example I-31], the “Post-emergence efficacy against STEME” value in the data set on Stellaria media (STEME) (80 g/ha), with Stellaria media (STEME) (320 g/ha) and in the data set on Stellaria media (STEME) (1280 g/ha) was 100% in each case.

On to `O=S(=O)(CCCC(F)(F)F)Oc1c(Cl)cccc1Oc1ncc(Br)cn1` [Example I-34], for which the “Post-emergence efficacy against STEME” value in the data set with Stellaria media (STEME) (80 g/ha), with Stellaria media (STEME) (320 g/ha) and with Stellaria media (STEME) (1280 g/ha) was 100% each time. Besides, the “Pre-emergence efficacy against KCHSC in %” value was determined as 90% with Kochia scoparia (KCHSC) (application rate 80 g/ha) and 100% with Kochia scoparia (KCHSC) (application rate 320 g/ha). Besides, the “Post-emergence efficacy against AMARE in %” value in data set [3] (application rate 80 g/ha) and in data set [3] (application rate 320 g/ha) was 100% throughout. Moreover, the “Post-emergence efficacy against DIGSA in %” value in data set [6] is reported as 90%.

For the molecule `C=CCS(=O)(=O)Oc1ccccc1Oc1ncc(Cl)cn1` [Example I-36], the “Post-emergence efficacy against STEME” value in the data set on Stellaria media (STEME) (1280 g/ha) is 100%. Besides, the “Pre-emergence efficacy against KCHSC in %” value with Kochia scoparia (KCHSC) (application rate 320 g/ha) is recorded as 100%. In addition, the “Pre-emergence efficacy against ZEAMX in %” value in the data set with Zea mays (ZEAMX) [5] (application rate 80 g/ha) came to 0%. Also, the “Post-emergence efficacy against ZEAMX in %” value with Zea mays (ZEAMX) [4] (application rate 80 g/ha) and in the data set with Zea mays (ZEAMX) [4] (application rate 320 g/ha) was 0% throughout.
